From patent US9034891B2, “Bicyclic heterocyclic spiro compounds” (ISRAEL INSTITUTE FOR BIOLOGICAL RESEARCH, priority 2009, dated 2015)

Tests used:
PC12 cells = test: MTT assay, β-amyloid 25-35 toxicity in PC12 cells; assay type: cell-based, rat; settings: 5 μM β-amyloid 25-35, 6 hours; 10 μM-1 nM
Excerpt: The 3-(4,5-dimethylthiazol-2-yl)-2,5-diphenyl-tetrazolium bromide (MTT) assay measures changes that occur within the cells, involving mitochondria activation, indicative of a process that eventually leads to cell death (Fagarasan et al., Mol. Psychiat. 1996, 1:398-403). This assay is a specific, early indicator of the mechanism of β-amyloid-mediated cell death (Shearman et al., PNAS USA 1994, 91:1470-74). This assay was used to evaluate compounds of formulae I and II. Rat pheochromocytoma (PC12) cells were plated in 96 well plate at a density of 10,000 cells/well, and maintained in Dulbecco's modified Eagle medium (Gibco, Cat. 21969) supplemented with 5% fetal bovine serum (Biological Industries, Cat. 04-121-1A), 10% heat-inactivated horse serum (Gibco Cat. 26050), L-Glutamine 200 mM (Biological Industries, Cat. 03-020-1C), Penicillin 10000 U/ml (Biological Industries, Cat 03-031-1C), and Amphotericin B 50 mg/ml (Biological Industries, Cat. 01-029-1C). The next day the medium was refreshed with serum free media and cells were treated with 5 μM β-amyloid 25-35 (H-1192.0001, Bachem) in the presence or absence of the test compound. Compounds were tested for 6 hours, respectively, at final concentrations ranging between 0.1 nM to 100 μM. 3-Indolepropionic acid (3-IPA, Cat. 220027, Sigma Aldrich) served as a reference antioxidant.

M1 mAChR [1] = target: T1, M1 mAChR (Homo sapiens, UniProt P11229); test: αAPPs secretion in CHO cells double transfected with human APP695 and human M1 mAChR; assay type: cell-based
T1 sequence (P11229 1-460): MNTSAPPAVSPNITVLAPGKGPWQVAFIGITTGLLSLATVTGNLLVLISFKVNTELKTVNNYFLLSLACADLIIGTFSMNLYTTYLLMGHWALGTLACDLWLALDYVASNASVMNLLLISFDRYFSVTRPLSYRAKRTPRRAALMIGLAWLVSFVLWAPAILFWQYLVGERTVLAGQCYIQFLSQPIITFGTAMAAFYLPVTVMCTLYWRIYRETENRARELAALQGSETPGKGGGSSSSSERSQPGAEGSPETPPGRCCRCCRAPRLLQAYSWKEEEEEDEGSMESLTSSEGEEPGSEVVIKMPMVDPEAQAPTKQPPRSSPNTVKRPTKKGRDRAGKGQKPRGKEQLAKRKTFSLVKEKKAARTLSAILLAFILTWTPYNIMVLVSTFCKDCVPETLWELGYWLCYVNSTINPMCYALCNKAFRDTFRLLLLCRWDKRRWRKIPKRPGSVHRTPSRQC
Experimental: (§1) α-APPs Secretion studies following incubation with the tested compounds were performed as described in Haring, et al. J. Neurochem., 1998, 71:2094-103. […] A day later, cells were washed twice with serum free media, and treated with the test compound at various concentrations ranging from 0.1 nM to 100 μM. […] After 1 hour the conditioned medium was collected to cold Eppendorf tubes, which included a protease inhibitor cocktail (0.1 mM phenylmethylsulphonyl fluoride (PMSF); 5 μg/ml leupeptin; 5 μg/ml pepstatin and 5 units/ml aprotinin) for determining αAPPs release. The protein content of each sample was concentrated using Centricon tubes (Amicon, Beverly, Mass.). […] CHO cells double transfected with human APP695 and M1 mAChR APPs bands were probed using anti-amyloid beta protein (1:1000, monoclonal 6E10 antibody, MAB1560, Chemicon) and peroxidase-linked rabbit anti mouse IgG (1:5,000; Jackson Immuno Research, PA). PC12 cells stably transfected with M1 mAChR APPs bands were probed using the anti-Alzheimer precursor protein A4 (1:4,000; monoclonal 22C11 antibody, Boehringer Mannheim) and the peroxidase-linked rabbit anti mouse IgG (1:20,000; Jackson Immuno Research, PA). Following extensive washout, the membranes were treated with Western Lightning Chemiluminescence Reagent Plus (PerkinElmer Life Sciences, MA) followed by exposure to SuperRX film (Fuji Medical X-ray film, Tokyo, Japan). Quantitative determination of the total APPs bands was performed by Scion Image program (NIH, Bethesda, USA). Samples of control and CCh were assayed in parallel and thus enabled compilation of data from separate experiments.

rat M1 mAChR = target: T2, rat M1 mAChR (Rattus norvegicus, UniProt P08482); test: αAPPs secretion in PC12 cells stably transfected with rat M1 mAChR; assay type: cell-based; settings: 0.1 nM to 1 μM, not observed in untransfected PC12
T2 construct: expressed in transfected cells; host or cells: rat pheochromocytoma PC12 cells
Experimental: as §1, with “Following extensive washout, the membranes were treated with Western Lightning Chemiluminescence Reagent Plus (PerkinElmer Life Sciences, MA) followed by exposure to SuperRX film (Fuji Medical X-ray film, Tokyo, Japan).” left out, “Samples of control and CCh were assayed in parallel and thus enabled compilation of data from separate experiments.” left out

M1 mAChR [2] = target: T1, M1 mAChR
M1 mAChR [3] = target: T1, M1 mAChR; test: Intracellular Ca2+ mobilization (Fluo-4 NW) in cells stably transfected with M1 mAChR; assay type: cell-based; design: expressed in transfected cells; settings: 100 μM; mobilization of intracellular Ca ions
Excerpt: On the day of experiment, cells were fully confluent.
To evaluate selectivity for a subtype of mAChR, in particular the M1 mAChR vs. M3 and MS mAChR, the assays were calibrated using ligands that have a combined activity, e.g. M1 agonistic and M3 antagonistic or M1 agonistic and MS antagonistic profiles, respectively. This can eliminate effects due to different receptor reserves in cell-based assays.

T2 sequence (P08482 whole entry): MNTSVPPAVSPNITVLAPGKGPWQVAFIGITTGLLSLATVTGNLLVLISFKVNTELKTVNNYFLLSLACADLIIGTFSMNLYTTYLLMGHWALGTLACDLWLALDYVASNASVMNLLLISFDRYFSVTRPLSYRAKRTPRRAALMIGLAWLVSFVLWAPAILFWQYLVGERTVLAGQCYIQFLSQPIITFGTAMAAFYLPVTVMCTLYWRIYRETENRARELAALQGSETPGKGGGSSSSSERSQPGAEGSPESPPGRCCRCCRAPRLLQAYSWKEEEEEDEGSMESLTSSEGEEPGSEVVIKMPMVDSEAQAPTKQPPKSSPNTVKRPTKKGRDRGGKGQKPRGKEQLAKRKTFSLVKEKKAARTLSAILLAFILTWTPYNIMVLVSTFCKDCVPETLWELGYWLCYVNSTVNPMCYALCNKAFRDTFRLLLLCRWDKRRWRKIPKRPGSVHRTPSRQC

| SMILES | protection against toxicity induced by Aβ25-35 (MTT) (PC12 cells) | release of αAPPs (M1 mAChR [1]; CHO cells, 0.1 nM to 1 μM) | maximal αAPPs secretion in comparison to untreated control cells (M1 mAChR [1]; doubly-transfected CHO cells, AF710B at 0.01 μM, AF710 at 0.1 μM, AF710A at 1 μM) | release of αAPPs (rat M1 mAChR) | effect of brucine pre-incubation on elevation of intracellular calcium ions (M1 mAChR [2]) | M1 agonist at 100 μM vs. carbachol (full muscarinic agonist, 100%) (M1 mAChR [3]) |
| --- | --- | --- | --- | --- | --- | --- |
| CC1SC2(CCN(C)CC2)CN1C(=O)CCc1c[nH]c2ccccc12 (racemic) [AF710, 1-(2,8-dimethyl-1-thia-3,8-diazaspiro[4.5]dec-3-yl)-3-(1H-indol-3-yl) propan-1-one] | protected cells | enhanced the release of αAPPs | 175% | enhanced the release of αAPPs | no such effect | 40% |
| CC1OC2(CCN(C)CC2)CN1C(=O)CCc1c[nH]c2ccccc12 (racemic) [AF711, 1-(2,8-dimethyl-1-oxa-3,8-diazaspiro[4.5]dec-3-yl)-3-(1H-indol-3-yl)-propan-1-one] | protected cells | – | – | – | – | 19% |
| O=C(O)CCc1c[nH]c2ccccc12 [3-IPA, 3-Indolepropionic acid, reference compound] | protected cells | – | – | – | – | – |
